Data published in patent US20230416196A1, “DIMER OF BIGUANIDINES AND THEIR THERAPEUTIC USES” (INSTITUT CURIE, priority 2020, published 2023).

Experiments:
[1] = tested on: HMLER CD44^high/CD24^low; experiment: Cell viability assay (CellTiter-Blue) on breast cancer stem cell model HMLER CD44high/CD24low; type: cell-based, human
Protocol: Cell viability assay (IC50). Cell viability assay was carried out by plating 1000 cells/well in 96-well plates. Cells were treated for 72 h in a range between to 25 nM and […] using serial dilutions. The inventors followed the manufacturer's protocol. In brief, CellTiter-Blue® reagent (G8081, Promega) was added after 72 h treatment and cells were incubated for 3 h before recording fluorescence intensities (λex. 560/20 nm; λem. 590/10 nm) using a Perkin Elmer Wallac 1420 Victor2 Microplate Reader.
Cell culture. MCF7 (ATCC) cells, DU-145 (ATCC) cells and FC1245 cells were cultured in Dulbecco's Modified Eagle Medium GlutaMAX (DMEM, ThermoFisher Scientific, 61965059) supplemented with 10% Fetal Bovine Serum (FBS, Gibco, 10270-106) and Penicillin-Streptomycin mixture (BioWhittaker/Lonza, DE17-602E) unless stated otherwise. Primary lung circulating tumor cells (Celprogen, 36107-34CTC, Lot 219411) were grown using stem cell complete media (Celprogen, M36102-29PS) until the third passage. Circulating cancer cells were grown in stem cell ECM T75-flasks (Celprogen, E36102-29-T75) and ECM 6-well plates (Celprogen, E36102-29-6Well). HMLER cells ([…]) naturally repressing E-cadherin, obtained from human mammary epithelial cells infected with a retrovirus carrying hTERT, SV40 and the oncogenic allele H-rasV12, and HMLER CD44 and TFRC ko clones were cultured in DMEM/F12 (Thermo Fisher Scientific, 31331093) supplemented with 10% FBS (Thermo Fisher Scientific, 10270106), 10 μg/mL insulin (Sigma-Aldrich, 10516), 0.5 μg/mL hydrocortisone (Sigma-Aldrich, H0888) and 0.5 μg/mL puromycin (Life Technologies, A11138-02), unless stated otherwise. HMLER CD44^high cells were also supplemented with 10 ng/mL EGF (Miltenyi Biotech, 130-097-750).

[2] = tested on: mice challenged with LPS; experiment: Murine model of LPS-induced severe inflammation; type: in vivo, BALB/c mice; conditions: LPS 20 mg/kg IP; LCC-12 0.3 mg/kg IP; dexamethasone 10 mg/kg PO as comparator; FIG. 4D
Protocol: Murine model of LPS-induced severe inflammation. Animal work was conducted at Fidelta Ltd according to 2010/63/EU and National legislation regulating the use of laboratory animals in scientific research and for other purposes (Official Gazette 55/13). An Institutional Committee on Animal Research Ethics (CARE-Zg) oversaw that animal-related procedures were not compromising the animal welfare. LPS (Sigma-Aldrich, L2630, 20 mg/kg) was injected intraperitoneally to male BALB/c mice (8 weeks-old). LCC-12 (0.3 mg/kg, IP, n=10) or vehicle (0.9% NaCl, 10 mL/kg, IP, n=10) were injected 2 h prior LPS challenge, then 24 h, 48 h, 72 h and 96 h post challenge. Dexamethasone (10 mg/kg, PO, n=10) was given 1 h prior LPS challenge. Incidence of mortality was monitored every 4 h up to 48 h, then twice daily.

[3] = tested on: biopsy-derived organoids of PDAC; experiment: Chemograms on biopsy-derived organoids of pancreatic ductal adenocarcinoma; type: cell-based, human; conditions: 72 h, CellTiter-Glo 3D; FIG. 9
Description: Biopsy-derived pancreatic organoid (BDPO) generation. BDPOs were obtained from endoscopic ultrasound-guided fine-needle aspirations (EUS-FNA) from patients with PDAC included under the PaCaOmics clinical trial (ClinicalTrials.gov: NCT01692873) after approval by the Paoli-Calmettes hospital ethics committee and following patient informed consent. Cultures were established as previously described. Briefly, PDAC biopsies were slightly digested with the Tumor Dissociation Kit (Miltenyi Biotec) at 37° C. for 5 minutes. The pancreatic tissue slurry was transferred into a tissue strainer 100 μm and was placed into 12-well plates coated with 150 μL GFR matrigel (Corning, Boulogne-Billancourt, France). […]
Chemograms on BDPO. […] 24 hours later, one plate was used directly for RNA preparation (Time 0 transcriptome) and on the other the medium was supplemented with increasing concentrations of each drug, 72 hours later cell viability was measured with CellTiter-Glo 3D (Promega) reagent quantified using the plate reader Tristar LB941 (Berthold Technologies). Values were normalized and expressed as the percentage of the control (vehicle), which represents 100% of normalized fluorescence. […]

In the case of `N=C(N)NC(=N)NCCCCCCCCCCCCNC(=N)NC(=N)N` [LCC-12, lipophilic copper clamp C12], the “improved IC50 compared with metformin” value ([1]; HMLER CD44high/CD24low) is reported as “more than 2800 fold”, the IC50 ([1]; Homo sapiens, cell viability, 72 h treatment, read-out: IC50 against HMLER CD44^high/CD24^low) is reported as 8 µM and the “survival of mice challenged with LPS” value [2] is reported as “increased the survival of mice challenged with LPS to a similar extent than dexamethasone”. For the same molecule, the “efficacy (IC50) on biopsy-derived organoids of PDAC” value [3] was “low micromolar range”.
